Counter-ions that a name gives are not always drawn. Like-named read-outs stand apart in the source and are kept apart here.
Assays:
[1] = molecular target: T1, SGLT1 (Homo sapiens, UniProt P13866); experiment: SGLT1 inhibition assay for validation of screening hits and similar compounds (1‐NBD‐glucose uptake, CHO‐hSGLT1 cells); format: cell-based; set-up: activity: dose or concentration left out as unconfirmed; conditions: for remaining activity at 5 µM / remaining activity at 50 µM: 0.5 h, concentration not given, read-out: NORMALIZED SGLT1 ACTIVITY (%); for remaining activity at 5 µM / remaining activity at 50 µM / activity: mean; for activity: compound, normalized 1-NBD-glucose uptake, CHO-hSGLT1 cells; for inhibition at 50 µM: read-out: SGLT1 inhibition
T1 sequence (P13866 1-664): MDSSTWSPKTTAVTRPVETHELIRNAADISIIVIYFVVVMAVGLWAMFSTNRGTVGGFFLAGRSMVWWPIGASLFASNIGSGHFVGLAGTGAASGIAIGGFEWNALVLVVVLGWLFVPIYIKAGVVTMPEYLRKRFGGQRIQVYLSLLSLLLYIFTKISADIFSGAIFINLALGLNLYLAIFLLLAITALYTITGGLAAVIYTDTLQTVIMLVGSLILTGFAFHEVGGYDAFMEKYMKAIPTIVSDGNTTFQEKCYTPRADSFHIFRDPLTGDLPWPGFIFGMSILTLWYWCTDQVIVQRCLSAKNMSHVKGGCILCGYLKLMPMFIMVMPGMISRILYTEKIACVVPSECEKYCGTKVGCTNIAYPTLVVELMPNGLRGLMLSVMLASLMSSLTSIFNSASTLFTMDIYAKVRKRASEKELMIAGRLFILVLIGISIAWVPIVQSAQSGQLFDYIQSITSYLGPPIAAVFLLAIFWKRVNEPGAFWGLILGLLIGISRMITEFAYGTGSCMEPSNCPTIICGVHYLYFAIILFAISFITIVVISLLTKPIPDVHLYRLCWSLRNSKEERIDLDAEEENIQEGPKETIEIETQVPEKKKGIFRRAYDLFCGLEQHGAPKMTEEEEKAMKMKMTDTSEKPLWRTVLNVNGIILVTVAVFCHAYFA

[2] = molecular target: T2, hSGLT2 (Homo sapiens, UniProt P31639); experiment: SGLT2 inhibition assay for validation of screening hits and similar compounds (1‐NBD‐glucose uptake, CHO‐hSGLT2 cells); format: cell-based; set-up: activity: dose or concentration left out as unconfirmed; conditions: for remaining activity at 5 µM / remaining activity at 50 µM: 0.5 h, concentration not given, read-out: NORMALIZED SGLT2 ACTIVITY (%); for remaining activity at 5 µM / remaining activity at 50 µM / activity: mean; for activity: compound, normalized 1-NBD-glucose uptake, CHO-hSGLT2 cells; for SGLT2/SGLT1 ACTIVITY RATIO 5 uM Mean: ratio of normalized SGLT2 to SGLT1 activity at 5 uM
T2 sequence (P31639 1-672): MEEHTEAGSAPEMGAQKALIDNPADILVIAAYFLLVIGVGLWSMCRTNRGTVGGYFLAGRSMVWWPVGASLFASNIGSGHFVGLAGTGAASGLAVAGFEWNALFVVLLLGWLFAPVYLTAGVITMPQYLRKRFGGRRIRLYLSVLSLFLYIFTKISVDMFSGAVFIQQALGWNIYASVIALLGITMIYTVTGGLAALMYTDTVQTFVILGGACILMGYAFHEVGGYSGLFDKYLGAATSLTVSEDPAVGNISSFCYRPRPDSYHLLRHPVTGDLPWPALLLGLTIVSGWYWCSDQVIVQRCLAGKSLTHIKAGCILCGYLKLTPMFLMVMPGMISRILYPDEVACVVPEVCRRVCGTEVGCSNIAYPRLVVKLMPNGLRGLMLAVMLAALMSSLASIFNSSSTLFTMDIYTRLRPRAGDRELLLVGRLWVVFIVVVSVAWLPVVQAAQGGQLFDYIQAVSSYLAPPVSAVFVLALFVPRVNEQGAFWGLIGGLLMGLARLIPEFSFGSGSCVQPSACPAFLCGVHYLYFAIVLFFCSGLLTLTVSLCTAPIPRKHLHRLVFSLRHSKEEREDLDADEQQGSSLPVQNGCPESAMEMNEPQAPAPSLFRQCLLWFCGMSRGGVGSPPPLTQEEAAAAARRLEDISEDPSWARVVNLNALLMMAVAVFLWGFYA

[3] = mean inhibition with 50 μmol/L inhibitor

| SMILES | remaining activity at 5 µM [1] | remaining activity at 50 µM [1] | remaining activity at 5 µM [2] | remaining activity at 50 µM [2] | other results |
| --- | --- | --- | --- | --- | --- |
| Oc1ccc([C@H]2c3c(O)cc4c5c3[C@@H]([C@H](c3ccc(O)cc3)c3c(O)cc(O)cc3[C@H]5[C@@H](c3ccc(O)cc3)O4)[C@@H]2c2cc(O)cc(O)c2)cc1 [Viniferol D] | 100% | 102% | 97% | 65% | SGLT2/SGLT1‐50μmol/L (ratio of SGLT2 to SGLT1 activities with 50 μmol/L inhibitor) [1]: 0.6; SGLT1 inhibition [1, 3]: no effect on SGLT1; inhibition at 50 µM [2, 3]: 35% |
| CN1CCCCC1c1ccc(-c2cccnc2)nc1 (centres unmarked) [Anabasamine] | 114% | 100% | 103% | 91% |  |
| O=C(/C=C/c1ccc(O[C@@H]2O[C@H](CO)[C@@H](O)[C@H](O)[C@H]2O)cc1)c1ccc(O)cc1O [Isoliquiritin] |  |  |  |  | SGLT2/SGLT1‐50μmol/L (ratio of SGLT2 to SGLT1 activities with 50 μmol/L inhibitor) [1]: 1.4; activity [1]: 96%; inhibition at 50 µM [1, 3]: 46%; activity [2]: 98%; inhibition at 50 µM [2, 3]: 24%; SGLT2/SGLT1 ACTIVITY RATIO 5 uM Mean [2]: 1.0 |
| Oc1c(Cl)cc(Cl)c2cccnc12 | 115% | 57% | 114% | 91% |  |
| CC(=O)OC(C)(C)C1Cc2cc3ccc(=O)oc3cc2O1 (centres unmarked) |  |  |  |  | activity [1]: 106%; activity [2]: 101%; SGLT2/SGLT1 ACTIVITY RATIO 5 uM Mean [2]: 1.0 |
| Cc1cccc(C)c1NC(=O)CN1CCCC1=O [Nefiracetam] | 95% | 95% | 87% | 84% |  |
| CN1CC[C@H](c2nc3ccccc3s2)C1 | 116% | 116% | 104% | 112% |  |
| Oc1ccc([C@H]2Oc3cc(O)cc4c3[C@@H]2c2cc(O)cc3c2[C@@H](c2cc(O)cc5c2[C@@H]4[C@H](c2ccc(O)cc2)O5)[C@H](c2ccc(O)cc2)O3)cc1 [a-Viniferin] | 96% | 102% | 104% | 109% |  |
| OC(CCN1CCCCC1)(c1ccccc1)C1CCCCC1 (centres unmarked) [Trihexyphenidyl, trihexyphenidyl, reference compound] |  |  |  |  | IC50 [1]: 12 µM; SGLT1/2 inhibition stated in words [1]: novel SGLT1/2 inhibitors; inhibition at 50 µM [1]: 69%; IC50 [2]: 20 µM |
| Cn1c(CO[C@H]2CN(Cc3ccncc3F)C[C@H]2F)nc2ccccc21 | 115% | 115% | 99% | 99% |  |
| CN(C)CCOC(c1ccc(Cl)cc1)c1ccccn1 (centres unmarked) [Carbinoxamine] |  |  |  |  | activity [1]: 105%; activity [2]: 100%; SGLT2/SGLT1 ACTIVITY RATIO 5 uM Mean [2]: 1.0 |
| c1ccc(CO[C@H]2COCCN(Cc3ccccn3)C2)cc1 |  |  |  |  | activity [1]: 120%; activity [2]: 110%; SGLT2/SGLT1 ACTIVITY RATIO 5 uM Mean [2]: 0.9 |
| CCN(CC)CCC(O)(c1ccccc1)C1CCCCC1 (centres unmarked) |  |  |  |  | activity [1]: 72%; activity [2]: 69%; SGLT2/SGLT1 ACTIVITY RATIO 5 uM Mean [2]: 0.952 |
| OC(CCN1CCCC1)(c1ccccc1)C1CCCCC1 (centres unmarked) [Procyclidine HCl] |  |  |  |  | activity [1]: 74%; activity [2]: 76% |
| C=CC(C)(O)CC/C=C(\C)C(=O)OC1C(O)C(CO)OC(OC(=O)C23CCC(C)(C)CC2C2=CCC4C5(C)CCC(OC6OC(COC7OCC(OC(C)=O)C(O)C7OC7OC(COC(C)=O)C(O)C(O)C7O)C(O)C(O)C6O)C(C)(C)C5CCC4(C)C2(C)C(O)C3O)C1OC1OCC(OC2OCC(O)C(OC3OCC(O)C(O)C3O)C2O)C(O)C1O (centres unmarked) | 112% | 54% | 111% | 71% |  |
| CN1CCC(N2CC[C@H](c3nc4ccccc4o3)C2)CC1 | 117% | 114% | 102% | 106% |  |
| O[C@@H]1CCCC[C@H]1N1CCC(c2ccccc2)CC1 (racemic) [vesamicol, reference compound] | 93% | 51% | 91% | 71% | SGLT1/2 inhibition stated in words ([1]; SGLT1 and/or SGLT2, discussion statements): showed SGLT1/2 inhibition |
| CN1CCC(N2CC[C@H](c3nc4cc(Cl)ccc4o3)C2)CC1 | 116% | 115% | 101% | 85% |  |
| Cc1cc(C)c(NC(=O)C2CCCCN2C2CCCCC2)c(C)c1 (centres unmarked) | 92% | 58% | 81% | 52% |  |
| Clc1ccc(C2(Cn3cncn3)OCCO2)c(Cl)c1 [Azaconazole] | 111% | 107% | 109% | 104% |  |
| CN1CCN2c3ncccc3Cc3ccccc3C2C1 (centres unmarked) [Mirtazapine] | 114% | 105% | 113% | 108% |  |
| Fc1ccc(-c2noc([C@@H]3CCCN3Cc3ccccc3F)n2)nc1 | 125% | 105% | 110% | 91% |  |
| C=C[C@H]1C[N@@]2CC[C@H]1C[C@@H]2[C@@H](O)c1ccnc2ccccc12 [Cinchonine] | 121% | 112% | 111% | 105% |  |
| CC1(C)Oc2ccc3ccc(=O)oc3c2[C@H](O)[C@@H]1O (relative stereo) [cis‐khellactone] |  |  |  |  | SGLT1 inhibition [1, 3]: no SGLT inhibition; SGLT2 inhibition [2, 3]: no SGLT inhibition |
| Oc1ccc(C=Cc2cc(O)cc3c2C(c2cc(O)cc(O)c2)C(c2ccc(O)cc2)O3)cc1 (stereo not drawn) [(−)‐ε‐viniferin] |  |  |  |  | SGLT2/SGLT1‐50μmol/L (ratio of SGLT2 to SGLT1 activities with 50 μmol/L inhibitor) [1]: 0.6; SGLT1 inhibition [1, 3]: did not inhibit SGLT1; inhibition at 50 µM [2, 3]: 35% |
| COc1ccc2ccc(=O)oc2c1C(OC(C)=O)C(=O)C(C)C (centres unmarked) [Hainanmurpanin] |  |  |  |  | activity [1]: 110%; activity [2]: 108%; SGLT2/SGLT1 ACTIVITY RATIO 5 uM Mean [2]: 1.0 |
| CC(C)(C)C(=O)C(Oc1ccc(Cl)cc1)n1cncn1 (centres unmarked) [Triadimefon] | 101% | 58% | 91% | 76% |  |
| CC(=O)OC1C(OC(=O)C2(C)OC2C)c2c(ccc3ccc(=O)oc23)OC1(C)C (centres unmarked) |  |  |  |  | activity [1]: 102%; activity [2]: 90%; SGLT2/SGLT1 ACTIVITY RATIO 5 uM Mean [2]: 0.9 |

— publication PMC6664820, “Novel natural and synthetic inhibitors of solute carriers SGLT1 and SGLT2” (Pharmacology Research & Perspectives, 2019)
